Source: article PMC9226124, “Macrocycle-stabilization of its interaction with 14-3-3 increases plasma membrane localization and activity of CFTR” (Nature Communications, 2022)
Several values for one entry are separate records, joined by “and”; a condition that tells them apart may be missing. Identical values can stand only once. Values belong to the compound of their own block, whether it stands above or below them.

Key:
[1] = target: T1, FITC-labeled CFTRpS753pS768 peptide (no 14-3-3) (Homo sapiens, UniProt P13569); experiment: Dose-response FP control assay in the absence of 14-3-3; type: binding; details: No 14-3-3
T1 construct: made in house; host or cells: synthetic peptide
In short: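 Control run without 14-3-3: FITC-CFTR pS753/pS768 peptide (100 nM or 10 nM) with compound titrated in twofold dilutions in 10 mM HEPES pH 7.4, 150 mM NaCl, 0.1% Tween20, 1 mg/mL BSA. Fluorescence polarization read at ex 485/em 535 nm, background subtracted, n = 3. Curves fitted by four-parameter log(agonist) vs. response.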

[2] = target: T2, 14-3-3β/CFTRpS753pS768 complex (Homo sapiens, UniProt P13569+P31946); experiment: FP assay, 14-3-3β titration at constant compound concentration (apparent KD); type: binding; details: for FP signal, 14-3-3β titration: replicates
T2 construct: His6 (cleaved yes); made in house; peptide synthetic
T2 sequence (P31946 whole entry): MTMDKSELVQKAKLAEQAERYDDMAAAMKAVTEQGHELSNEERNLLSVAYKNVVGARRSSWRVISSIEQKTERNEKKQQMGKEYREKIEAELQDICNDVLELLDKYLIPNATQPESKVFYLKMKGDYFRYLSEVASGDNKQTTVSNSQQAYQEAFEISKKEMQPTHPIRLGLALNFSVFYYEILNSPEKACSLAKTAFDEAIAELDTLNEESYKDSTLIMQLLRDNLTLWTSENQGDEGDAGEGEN
T2 sequence (P13569 747-774 limits assumed): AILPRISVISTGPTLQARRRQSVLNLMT

FP signal ([1]; compound 476.8 pM): 1
FP signal ([1]; compound 953.7 pM): 3
FP signal ([1]; compound 1.90735e-9 M): 2
FP signal ([1]; compound 3.8147e-9 M): 5
FP signal ([1]; compound 7.6294e-9 M): 5
FP signal ([1]; compound 1.52588e-8 M): 4
FP signal ([1]; compound 3.05176e-8 M): 6
FP signal ([1]; compound 6.10352e-8 M): 6
FP signal ([1]; compound 1.2207e-7 M): 3
FP signal ([1]; compound 2.44141e-7 M): 4
FP signal ([1]; compound 4.88281e-7 M): 4
FP signal ([1]; compound 9.76563e-7 M): 5
FP signal ([1]; compound 1.95313e-6 M): 5
FP signal ([1]; compound 3.90625e-6 M): 6
FP signal ([1]; compound 7.8125e-6 M): 10
FP signal ([1]; compound 1.5625e-5 M): 13
FP signal ([1]; compound 3.125e-5 M): 24
FP signal ([1]; compound 6.25e-5 M): 59
FP signal ([1]; compound 0.000125 M): 124
FP signal ([1]; compound 0.00025 M): 186
FP signal ([1]; compound 0.0005 M): 230
FP signal ([1]; compound 0.001 M): 257
Fluorescence polarization signal, 14-3-3β titration ([2]; CY compound (100 μM), 14-3-3β concentration 7.62939e-9 M): 3.667 and 2.667 and 4.667
Fluorescence polarization signal, 14-3-3β titration ([2]; CY compound (100 μM), 14-3-3β concentration 3.05176e-8 M): 5.667 and 6.667
Fluorescence polarization signal, 14-3-3β titration ([2]; CY compound (100 μM), 14-3-3β concentration 2.44141e-7 M): 8.667 and 10.6667 and 11.6667
Fluorescence polarization signal, 14-3-3β titration ([2]; CY compound (100 μM), 14-3-3β concentration 4.88281e-7 M): 12.6667 and 17.6667 and 16.6667
Fluorescence polarization signal, 14-3-3β titration ([2]; CY compound (100 μM), 14-3-3β concentration 7.8125e-6 M): 36.6667 and 60.6667 and 59.6667
Fluorescence polarization signal, 14-3-3β titration ([2]; CY compound (100 μM), 14-3-3β concentration 1.5625e-5 M): 49.6667 and 67.6667 and 72.6667
Fluorescence polarization signal, 14-3-3β titration ([2]; CY compound (100 μM), 14-3-3β concentration 3.125e-5 M): 68.6667 and 82.6667 and 79.6667
Fluorescence polarization signal, 14-3-3β titration ([2]; CY compound (100 μM), 14-3-3β concentration 6.25e-5 M): 87.6667 and 91.6667 and 95.6667
Fluorescence polarization signal, 14-3-3β titration ([2]; CY compound (100 μM), 14-3-3β concentration 0.000125 M): 105.667 and 110.667 and 108.667
Fluorescence polarization signal, 14-3-3β titration ([2]; CY compound (100 μM), 14-3-3β concentration 0.00025 M): 127.667 and 126.667
Fluorescence polarization signal, 14-3-3β titration ([2]; CY compound (100 μM), 14-3-3β concentration 0.0005 M): 145.667 and 146.667 and 147.667
Fluorescence polarization signal, 14-3-3β titration ([2]; FC-A + CY compound, 14-3-3β concentration 119.2 pM): 1.667
Fluorescence polarization signal, 14-3-3β titration ([2]; FC-A + CY compound, 14-3-3β concentration 3.05176e-8 M): 5.667 and 8.667
Fluorescence polarization signal, 14-3-3β titration ([2]; FC-A + CY compound, 14-3-3β concentration 6.10352e-8 M): 6.667 and 12.6667 and 9.667
Fluorescence polarization signal, 14-3-3β titration ([2]; FC-A + CY compound, 14-3-3β concentration 1.2207e-7 M): 20.6667 and 16.6667 and 13.6667
Fluorescence polarization signal, 14-3-3β titration ([2]; FC-A + CY compound, 14-3-3β concentration 2.44141e-7 M): 27.6667 and 26.6667
Fluorescence polarization signal, 14-3-3β titration ([2]; FC-A + CY compound, 14-3-3β concentration 4.88281e-7 M): 49.6667 and 43.6667
Fluorescence polarization signal, 14-3-3β titration ([2]; FC-A + CY compound, 14-3-3β concentration 9.76563e-7 M): 71.6667 and 68.6667 and 64.6667
Fluorescence polarization signal, 14-3-3β titration ([2]; FC-A + CY compound, 14-3-3β concentration 1.95313e-6 M): 94.6667 and 91.6667 and 86.6667
Fluorescence polarization signal, 14-3-3β titration ([2]; FC-A + CY compound, 14-3-3β concentration 3.90625e-6 M): 110.667 and 106.667 and 104.667
Fluorescence polarization signal, 14-3-3β titration ([2]; FC-A + CY compound, 14-3-3β concentration 7.8125e-6 M): 123.667 and 119.667 and 117.667
Fluorescence polarization signal, 14-3-3β titration ([2]; FC-A + CY compound, 14-3-3β concentration 1.5625e-5 M): 128.667 and 130.667
Fluorescence polarization signal, 14-3-3β titration ([2]; FC-A + CY compound, 14-3-3β concentration 3.125e-5 M): 139.667 and 137.667 and 141.667
Fluorescence polarization signal, 14-3-3β titration ([2]; FC-A + CY compound, 14-3-3β concentration 6.25e-5 M): 145.667 and 146.667 and 143.667
Fluorescence polarization signal, 14-3-3β titration ([2]; FC-A + CY compound, 14-3-3β concentration 0.000125 M): 155.667 and 156.667
Fluorescence polarization signal, 14-3-3β titration ([2]; FC-A + CY compound, 14-3-3β concentration 0.00025 M): 165.667 and 164.667 and 162.667
Fluorescence polarization signal, 14-3-3β titration ([2]; FC-A + CY compound, 14-3-3β concentration 0.0005 M): 178.667 and 174.667 and 172.667
Compound: CC1NC(=O)C(CCCNC(=N)N)NC(=O)C2CCCN2Cc2cccc(c2)-c2ccccc2CNC(=O)C(CCCNC(=N)N)NC1=O (stereo not drawn) [CY007476]

FP signal ([1]; compound 453 pM): 1
FP signal ([1]; compound 906 pM): 2
FP signal ([1]; compound 1.81198e-9 M): 2
FP signal ([1]; compound 3.62396e-9 M): 3
FP signal ([1]; compound 7.24792e-9 M): 3
FP signal ([1]; compound 1.44958e-8 M): 1
FP signal ([1]; compound 2.89917e-8 M): 3
FP signal ([1]; compound 5.79834e-8 M): 4
FP signal ([1]; compound 1.15967e-7 M): 3
FP signal ([1]; compound 2.31934e-7 M): 4
FP signal ([1]; compound 4.63867e-7 M): 6
FP signal ([1]; compound 9.27734e-7 M): 3
FP signal ([1]; compound 1.85547e-6 M): 3
FP signal ([1]; compound 3.71094e-6 M): 4
FP signal ([1]; compound 7.42187e-6 M): 6
FP signal ([1]; compound 1.48437e-5 M): 6
FP signal ([1]; compound 2.96875e-5 M): 6
FP signal ([1]; compound 5.9375e-5 M): 26
FP signal ([1]; compound 0.00011875 M): 67
FP signal ([1]; compound 0.0002375 M): 127
FP signal ([1]; compound 0.000475 M): 188
FP signal ([1]; compound 0.00095 M): 241
FP signal, 14-3-3β titration ([2]; 14-3-3β 7.62939e-9 M, FC-A + CY compound): 7 and 2 and -1
FP signal, 14-3-3β titration ([2]; 14-3-3β 7.62939e-9 M, compound 100 μM): 6 and 5
FP signal, 14-3-3β titration ([2]; 14-3-3β 1.52588e-8 M, FC-A + CY compound): 5 (2×) and 6
FP signal, 14-3-3β titration ([2]; 14-3-3β 1.52588e-8 M, compound 100 μM): 0 and 3 and 4
FP signal, 14-3-3β titration ([2]; 14-3-3β 3.05176e-8 M, FC-A + CY compound): 12 and 13 and 8
FP signal, 14-3-3β titration ([2]; 14-3-3β 3.05176e-8 M, compound 100 μM): 4 and 5 and 3
FP signal, 14-3-3β titration ([2]; 14-3-3β 6.10352e-8 M, FC-A + CY compound): 19 and 17 (2×)
FP signal, 14-3-3β titration ([2]; 14-3-3β 6.10352e-8 M, compound 100 μM): 3 (2×) and 5
FP signal, 14-3-3β titration ([2]; 14-3-3β 1.2207e-7 M, FC-A + CY compound): 30 and 33 and 27
FP signal, 14-3-3β titration ([2]; 14-3-3β 1.2207e-7 M, compound 100 μM): 6 and 5 and 8
FP signal, 14-3-3β titration ([2]; 14-3-3β 2.44141e-7 M, FC-A + CY compound): 51 and 57 and 45
FP signal, 14-3-3β titration ([2]; 14-3-3β 2.44141e-7 M, compound 100 μM): 8 (2×) and 7
FP signal, 14-3-3β titration ([2]; 14-3-3β 4.88281e-7 M, FC-A + CY compound): 76 and 79 and 69
FP signal, 14-3-3β titration ([2]; 14-3-3β 4.88281e-7 M, compound 100 μM): 10 and 8 and 12
FP signal, 14-3-3β titration ([2]; 14-3-3β 9.76563e-7 M, FC-A + CY compound): 99 and 95 and 89
FP signal, 14-3-3β titration ([2]; 14-3-3β 9.76563e-7 M, compound 100 μM): 16 and 15 and 18
FP signal, 14-3-3β titration ([2]; 14-3-3β 1.95313e-6 M, FC-A + CY compound): 108 (2×) and 110
FP signal, 14-3-3β titration ([2]; 14-3-3β 1.95313e-6 M, compound 100 μM): 24 (2×) and 28
FP signal, 14-3-3β titration ([2]; 14-3-3β 3.90625e-6 M, FC-A + CY compound): 119 (2×) and 117
FP signal, 14-3-3β titration ([2]; 14-3-3β 3.90625e-6 M, compound 100 μM): 31 and 32 and 33
FP signal, 14-3-3β titration ([2]; 14-3-3β 7.8125e-6 M, FC-A + CY compound): 126 and 127 and 121
FP signal, 14-3-3β titration ([2]; 14-3-3β 7.8125e-6 M, compound 100 μM): 35 and 40 and 41
FP signal, 14-3-3β titration ([2]; 14-3-3β 1.5625e-5 M, FC-A + CY compound): 132 and 128 and 129
FP signal, 14-3-3β titration ([2]; 14-3-3β 1.5625e-5 M, compound 100 μM): 49 and 50 and 52
FP signal, 14-3-3β titration ([2]; 14-3-3β 3.125e-5 M, FC-A + CY compound): 138 and 136 and 135
FP signal, 14-3-3β titration ([2]; 14-3-3β 3.125e-5 M, compound 100 μM): 64 and 62 and 65
FP signal, 14-3-3β titration ([2]; 14-3-3β 6.25e-5 M, FC-A + CY compound): 143 and 145
FP signal, 14-3-3β titration ([2]; 14-3-3β 6.25e-5 M, compound 100 μM): 87 and 83 and 85
FP signal, 14-3-3β titration ([2]; 14-3-3β 0.000125 M, FC-A + CY compound): 156 and 151 and 152
FP signal, 14-3-3β titration ([2]; 14-3-3β 0.000125 M, compound 100 μM): 104 and 106 and 103
FP signal, 14-3-3β titration ([2]; 14-3-3β 0.00025 M, FC-A + CY compound): 165 and 159 and 157
FP signal, 14-3-3β titration ([2]; 14-3-3β 0.00025 M, compound 100 μM): 119 (2×) and 122
FP signal, 14-3-3β titration ([2]; 14-3-3β 0.0005 M, FC-A + CY compound): 177 and 175 and 169
FP signal, 14-3-3β titration ([2]; 14-3-3β 0.0005 M, compound 100 μM): 151 and 144 and 146
Compound: N=C(N)NCCCC1NC(=O)C(CCC(N)=O)NC(=O)C(CCCNC(=N)N)NC(=O)C2CCCN2Cc2ccccc2Sc2ccccc2CNC1=O (stereo not drawn) [CY007502]
